According to patent publication US10787452B2 (Vertex Pharmaceuticals Incorporated, priority 2012, dated 2020):

Tested on: HCT116 colorectal cancer cells
Experiment: Cisplatin sensitization assay (96 h cell viability MTS);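 also: compound concentration needed to lower the Cisplatin-alone IC50 by a set fold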
Type: cell-based
Conditions: 96 h MTS, compound plus Cisplatin
Outline: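 HCT116 cells were co-treated with compound and cisplatin, each in 2-fold serial dilutions from a 10 μM top final concentration, as a full matrix. After 96 h at 37 °C, 5% CO2, viability was read by MTS following a 1 h incubation with reagent.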

Compound | Cisplatin Sensitization Assay
COCC1CCN(c2ccncc2NC(=O)c2c(N)nn3cc(F)cnc23)CC1 [I-N-282, 2-amino-6-fluoro-N-(4-(4-(methoxymethyl)piperidin-1-yl)pyridin-3-yl)pyrazolo[1,5-a]pyrimidine-3-carboxamide] | +++ (Compounds with a Cisplatin sensitization value of <0.02 μM are marked with “+++.”)
Cc1cncn1-c1ccncc1NC(=O)c1c(N)nn2cc(F)cnc12 [I-N-283, 2-amino-6-fluoro-N-(4-(5-methyl-1H-imidazol-1-yl)pyridin-3-yl)pyrazolo[1,5-a]pyrimidine-3-carboxamide] | ++ (Compounds with a Cisplatin sensitization value >0.02 μM but <0.2 μM are marked with “++.”)
Nc1nn2cc(F)cnc2c1C(=O)Nc1cncc(Cl)c1N1CCC(O)C1 (stereo not shown) [I-N-284, 2-amino-N-(5-chloro-4-(3-hydroxypyrrolidin-1-yl)pyridin-3-yl)-6-fluoropyrazolo[1,5-a]pyrimidine-3-carboxamide] | +++ (Compounds with a Cisplatin sensitization value of <0.02 μM are marked with “+++.”)
N#C[C@@H]1CCN(c2c(Cl)cncc2NC(=O)c2c(N)nn3cc(F)cnc23)C1 [I-N-285, (R)-2-amino-N-(5-chloro-4-(3-cyanopyrrolidin-1-yl)pyridin-3-yl)-6-fluoropyrazolo[1,5-a]pyrimidine-3-carboxamide] | ++ (Compounds with a Cisplatin sensitization value >0.02 μM but <0.2 μM are marked with “++.”)
CN1CC2CN(c3c(Cl)cncc3NC(=O)c3c(N)nn4cc(F)cnc34)CC2C1 (stereo not shown) [I-N-286, 2-amino-N-(5-chloro-4-(5-methylhexahydropyrrolo[3,4-c]pyrrol-2(1H)-yl)pyridin-3-yl)-6-fluoropyrazolo[1,5-a]pyrimidine-3-carboxamide] | ++ (Compounds with a Cisplatin sensitization value >0.02 μM but <0.2 μM are marked with “++.”)
CS(=O)(=O)C1CCN(c2c(Cl)cncc2NC(=O)c2c(N)nn3cc(F)cnc23)C1 (stereo not shown) [I-N-287, 2-amino-N-(5-chloro-4-(3-(methylsulfonyl)pyrrolidin-1-yl)pyridin-3-yl)-6-fluoropyrazolo[1,5-a]pyrimidine-3-carboxamide] | +++ (Compounds with a Cisplatin sensitization value of <0.02 μM are marked with “+++.”)
Nc1nn2cc(F)cnc2c1C(=O)Nc1cncc(F)c1N1CCC(n2ccnc2)CC1 [I-N-288, N-(4-(4-(1H-imidazol-1-yl)piperidin-1-yl)-5-fluoropyridin-3-yl)-2-amino-6-fluoropyrazolo[1,5-a]pyrimidine-3-carboxamide] | +++ (Compounds with a Cisplatin sensitization value of <0.02 μM are marked with “+++.”)
CN1CCN(C(=O)C2CCCN(c3c(F)cncc3NC(=O)c3c(N)nn4cc(F)cnc34)C2)CC1 (stereo not shown) [I-N-289, 2-amino-6-fluoro-N-(5-fluoro-4-(3-(4-methylpiperazine-1-carbonyl)piperidin-1-yl)pyridin-3-yl)pyrazolo[1,5-a]pyrimidine-3-carboxamide] | ++ (Compounds with a Cisplatin sensitization value >0.02 μM but <0.2 μM are marked with “++.”)
CN(C)C(=O)C1CCCN(c2ccncc2NC(=O)c2c(N)nn3cc(F)cnc23)C1 (stereo not shown) [I-N-290, 2-amino-N-(4-(3-(dimethylcarbamoyl)piperidin-1-yl)pyridin-3-yl)-6-fluoropyrazolo[1,5-a]pyrimidine-3-carboxamide] | ++ (Compounds with a Cisplatin sensitization value >0.02 μM but <0.2 μM are marked with “++.”)
CN1CC[C@H](Oc2ccncc2NC(=O)c2c(N)nn3cc(F)cnc23)C1 [I-O-1, (S)-2-amino-6-fluoro-N-(4-((1-methylpyrrolidin-3-yl)oxy)pyridin-3-yl)pyrazolo[1,5-a]pyrimidine-3-carboxamide] | +++ (Compounds with a Cisplatin sensitization value of <0.02 μM are marked with “+++.”)
